Measurements from ChEMBL document CHEMBL3259797, “Radiosyntheses and in vivo evaluation of carbon-11 PET tracers for PDE10A in the brain of rodent and nonhuman primate” (Bioorg Med Chem, 2014).

Experiments:
Kidney [1] = assay: Biodistribution in Sprague-Dawley rat kidney at 14.8 to 18.5 MBq, iv measured at 60 mins post-injection by gamma counting analysis; format: ADME, organism-based; details: in vivo, 1 h
Lung [2] = assay: Biodistribution in Sprague-Dawley rat lung at 14.8 to 18.5 MBq, iv measured at 60 mins post-injection by gamma counting analysis; format: ADME, organism-based; details: in vivo, 1 h
Blood [3] = assay: Biodistribution in Sprague-Dawley rat blood at 14.8 to 18.5 MBq, iv measured at 60 mins post-injection by gamma counting analysis; format: ADME, organism-based; details: in vivo, 1 h
Blood [4] = assay: Biodistribution in Sprague-Dawley rat blood at 14.8 to 18.5 MBq, iv measured at 5 mins post-injection by gamma counting analysis; format: ADME, organism-based; details: in vivo
Brain [5] = assay: Biodistribution in Sprague-Dawley rat brain at 14.8 to 18.5 MBq, iv measured at 30 mins post-injection by gamma counting analysis; format: ADME, organism-based; details: in vivo, 0.5 h
Rattus norvegicus [6] = assay: Biodistribution in Sprague-Dawley rat fat at 14.8 to 18.5 MBq, iv measured at 30 mins post-injection by gamma counting analysis; format: ADME, organism-based, Adipose tissue; details: in vivo, 0.5 h
Liver [7] = assay: Biodistribution in Sprague-Dawley rat liver at 14.8 to 18.5 MBq, iv measured at 5 mins post-injection by gamma counting analysis; format: ADME, organism-based; details: in vivo
Striatum [8] = assay: Biodistribution in Sprague-Dawley rat striatum at 14.8 to 18.5 MBq, iv measured at 60 mins post-injection by gamma counting analysis; format: ADME, organism-based; details: in vivo, 1 h
Muscle tissue [9] = assay: Biodistribution in Sprague-Dawley rat muscle at 14.8 to 18.5 MBq, iv measured at 60 mins post-injection by gamma counting analysis; format: ADME, organism-based; details: in vivo, 1 h
Rattus norvegicus [10] = assay: Biodistribution in Sprague-Dawley rat fat at 14.8 to 18.5 MBq, iv measured at 60 mins post-injection by gamma counting analysis; format: ADME, organism-based, Adipose tissue; details: in vivo, 1 h
Lung [11] = assay: Biodistribution in Sprague-Dawley rat lung at 14.8 to 18.5 MBq, iv measured at 30 mins post-injection by gamma counting analysis; format: ADME, organism-based; details: in vivo, 0.5 h
Cerebellum [12] = assay: Biodistribution in Sprague-Dawley rat cerebellum at 14.8 to 18.5 MBq, iv measured at 30 mins post-injection by gamma counting analysis; format: ADME, organism-based; details: in vivo, 0.5 h
Cerebellum [13] = assay: Biodistribution in Sprague-Dawley rat cerebellum at 14.8 to 18.5 MBq, iv measured at 5 mins post-injection by gamma counting analysis; format: ADME, organism-based; details: in vivo
Brain [14] = assay: Biodistribution in Sprague-Dawley rat brain at 14.8 to 18.5 MBq, iv measured at 60 mins post-injection by gamma counting analysis; format: ADME, organism-based; details: in vivo, 1 h
Liver [15] = assay: Biodistribution in Sprague-Dawley rat liver at 14.8 to 18.5 MBq, iv measured at 30 mins post-injection by gamma counting analysis; format: ADME, organism-based; details: in vivo, 0.5 h
Kidney [16] = assay: Biodistribution in Sprague-Dawley rat kidney at 14.8 to 18.5 MBq, iv measured at 30 mins post-injection by gamma counting analysis; format: ADME, organism-based; details: in vivo, 0.5 h
Muscle tissue [17] = assay: Biodistribution in Sprague-Dawley rat muscle at 14.8 to 18.5 MBq, iv measured at 30 mins post-injection by gamma counting analysis; format: ADME, organism-based; details: in vivo, 0.5 h
Heart [18] = assay: Biodistribution in Sprague-Dawley rat heart at 14.8 to 18.5 MBq, iv measured at 30 mins post-injection by gamma counting analysis; format: ADME, organism-based; details: in vivo, 0.5 h
Cerebellum [19] = assay: Biodistribution in Sprague-Dawley rat cerebellum at 14.8 to 18.5 MBq, iv measured at 60 mins post-injection by gamma counting analysis; format: ADME, organism-based; details: in vivo, 1 h
Muscle tissue [20] = assay: Biodistribution in Sprague-Dawley rat muscle at 14.8 to 18.5 MBq, iv measured at 5 mins post-injection by gamma counting analysis; format: ADME, organism-based; details: in vivo
Liver [21] = assay: Biodistribution in Sprague-Dawley rat liver at 14.8 to 18.5 MBq, iv measured at 60 mins post-injection by gamma counting analysis; format: ADME, organism-based; details: in vivo, 1 h
Kidney [22] = assay: Biodistribution in Sprague-Dawley rat kidney at 14.8 to 18.5 MBq, iv measured at 5 mins post-injection by gamma counting analysis; format: ADME, organism-based; details: in vivo
Rattus norvegicus [23] = assay: Biodistribution in Sprague-Dawley rat fat at 14.8 to 18.5 MBq, iv measured at 5 mins post-injection by gamma counting analysis; format: ADME, organism-based, Adipose tissue; details: in vivo
Lung [24] = assay: Biodistribution in Sprague-Dawley rat lung at 14.8 to 18.5 MBq, iv measured at 5 mins post-injection by gamma counting analysis; format: ADME, organism-based; details: in vivo
Striatum [25] = assay: Biodistribution in Sprague-Dawley rat striatum at 14.8 to 18.5 MBq, iv measured at 5 mins post-injection by gamma counting analysis; format: ADME, organism-based; details: in vivo
Heart [26] = assay: Biodistribution in Sprague-Dawley rat heart at 14.8 to 18.5 MBq, iv measured at 5 mins post-injection by gamma counting analysis; format: ADME, organism-based; details: in vivo
Heart [27] = assay: Biodistribution in Sprague-Dawley rat heart at 14.8 to 18.5 MBq, iv measured at 60 mins post-injection by gamma counting analysis; format: ADME, organism-based; details: in vivo, 1 h
Blood [28] = assay: Biodistribution in Sprague-Dawley rat blood at 14.8 to 18.5 MBq, iv measured at 30 mins post-injection by gamma counting analysis; format: ADME, organism-based; details: in vivo, 0.5 h
Brain [29] = assay: Biodistribution in Sprague-Dawley rat brain at 14.8 to 18.5 MBq, iv measured at 5 mins post-injection by gamma counting analysis; format: ADME, organism-based; details: in vivo
Striatum [30] = assay: Biodistribution in Sprague-Dawley rat striatum at 14.8 to 18.5 MBq, iv measured at 30 mins post-injection by gamma counting analysis; format: ADME, organism-based; details: in vivo, 0.5 h
Nucleic Acid = assay: Ratio of drug level in striatum to cerebellum in Sprague-Dawley rat at 14.8 to 18.5 MBq, iv measured at 30 mins post-injection by gamma counting analysis; format: ADME, organism-based; details: in vivo, 0.5 h

Work on `Cn1cc(-c2ccncc2)c(-c2ccc(OCc3ccc4cc(O[11CH3])ccc4n3)cc2)n1` yielded a Drug uptake (Kidney [1]) of 0.637 % ID/g, a Drug uptake (Lung [2]) of 0.249 % ID/g and a Drug uptake (Blood [3]) of 0.21 % ID/g. For the same molecule, the Drug uptake (Blood [4]) was 0.282 % ID/g, the Drug uptake (Brain [5]) was 0.105 % ID/g and the Drug uptake (Rattus norvegicus [6]) was 0.221 % ID/g. The Drug uptake (Liver [7]) was 5.357 % ID/g, the Drug uptake (Striatum [8]) was 0.089 % ID/g and the Drug uptake (Muscle tissue [9]) was 0.129 % ID/g. It also gave a Drug uptake (Rattus norvegicus [10]) of 0.135 % ID/g, a Drug uptake (Lung [11]) of 0.389 % ID/g and a Drug uptake (Cerebellum [12]) of 0.09 % ID/g. It also gave a Drug uptake (Cerebellum [13]) of 0.251 % ID/g, a Drug uptake (Brain [14]) of 0.074 % ID/g and a Drug uptake (Liver [15]) of 3.172 % ID/g. The Drug uptake (Kidney [16]) was 0.883 % ID/g, the Drug uptake (Muscle tissue [17]) was 0.175 % ID/g and the Drug uptake (Heart [18]) was 0.264 % ID/g. It also gave a Drug uptake (Cerebellum [19]) of 0.066 % ID/g, a Drug uptake (Muscle tissue [20]) of 0.151 % ID/g and a Drug uptake (Liver [21]) of 1.724 % ID/g. It also gave a Drug uptake (Kidney [22]) of 1.333 % ID/g, a Drug uptake (Rattus norvegicus [23]) of 0.139 % ID/g and a Drug uptake (Lung [24]) of 0.744 % ID/g. The Drug uptake (Striatum [25]) was 0.293 % ID/g, the Drug uptake (Heart [26]) was 0.416 % ID/g and the Drug uptake (Heart [27]) was 0.182 % ID/g. It also gave a Drug uptake (Blood [28]) of 0.275 % ID/g, a Drug uptake (Brain [29]) of 0.249 % ID/g and a Drug uptake (Striatum [30]) of 0.16 % ID/g.
With `Cn1ncc(-c2ccncc2)c1-c1ccc(OCc2cc(O[11CH3])c3ccccc3n2)cc1` the Drug uptake (Kidney [1]) was 0.575 % ID/g, the Drug uptake (Lung [2]) was 0.107 % ID/g and the Drug uptake (Blood [3]) was 0.067 % ID/g. It also gave a Drug uptake (Blood [4]) of 0.099 % ID/g, a Drug uptake (Brain [5]) of 0.025 % ID/g and a Drug uptake (Rattus norvegicus [6]) of 0.139 % ID/g. It also gave a Drug uptake (Liver [7]) of 3.312 % ID/g, a Ratio (Nucleic Acid) of 3.6 and a Drug uptake (Striatum [8]) of 0.037 % ID/g. It also gave a Drug uptake (Muscle tissue [9]) of 0.052 % ID/g, a Drug uptake (Rattus norvegicus [10]) of 0.139 % ID/g and a Drug uptake (Lung [11]) of 0.156 % ID/g. For the same molecule, the Drug uptake (Cerebellum [12]) was 0.024 % ID/g, the Drug uptake (Cerebellum [13]) was 0.094 % ID/g and the Drug uptake (Brain [14]) was 0.015 % ID/g. The Drug uptake (Liver [15]) was 4.43 % ID/g, the Drug uptake (Kidney [16]) was 0.645 % ID/g and the Drug uptake (Muscle tissue [17]) was 0.093 % ID/g. The Drug uptake (Heart [18]) was 0.132 % ID/g, the Drug uptake (Cerebellum [19]) was 0.015 % ID/g and the Drug uptake (Muscle tissue [20]) was 0.146 % ID/g. The Drug uptake (Liver [21]) was 4.588 % ID/g, the Drug uptake (Kidney [22]) was 1.744 % ID/g and the Drug uptake (Rattus norvegicus [23]) was 0.066 % ID/g. It also gave a Drug uptake (Lung [24]) of 0.643 % ID/g, a Drug uptake (Striatum [25]) of 0.151 % ID/g and a Drug uptake (Heart [26]) of 0.335 % ID/g. The Drug uptake (Heart [27]) was 0.103 % ID/g, the Drug uptake (Blood [28]) was 0.067 % ID/g and the Drug uptake (Brain [29]) was 0.091 % ID/g. For the same molecule, the Drug uptake (Striatum [30]) was 0.083 % ID/g.
